Source: PubChem BioAssay (NCI)
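Method: 48-hour compound exposure of cells in 96-well plates, five concentrations, linear interpolation of endpoints. GI50 is the concentration that inhibits growth by half. The concentration for full growth arrest is given as TGI.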

What was measured:
Assay in all cases: DTP human tumour cell line panel, 48 h
M14 melanoma = tested on: M14 melanoma
SNB-19 CNS = tested on: SNB-19 CNS
HT29 colon = tested on: HT29 colon
CCRF-CEM leukemia = tested on: CCRF-CEM leukemia
HCC-2998 colon = tested on: HCC-2998 colon
SF-268 CNS = tested on: SF-268 CNS
MCF7 breast = tested on: MCF7 breast
MDA-MB-435 = tested on: MDA-MB-435
ACHN renal = tested on: ACHN renal
UO-31 renal = tested on: UO-31 renal
EKVX NSCLC = tested on: EKVX NSCLC
SF-295 CNS = tested on: SF-295 CNS
SW-620 colon = tested on: SW-620 colon
MDA-MB-231 breast = tested on: MDA-MB-231 breast
MALME-3M melanoma = tested on: MALME-3M melanoma
LOX IMVI melanoma = tested on: LOX IMVI melanoma
HS 578T breast = tested on: HS 578T breast
RXF 393 renal = tested on: RXF 393 renal
HOP-62 NSCLC = tested on: HOP-62 NSCLC
TK-10 renal = tested on: TK-10 renal
HCT-15 colon = tested on: HCT-15 colon
SK-MEL-2 melanoma = tested on: SK-MEL-2 melanoma
KM12 colon = tested on: KM12 colon
SK-MEL-5 melanoma = tested on: SK-MEL-5 melanoma
786-0 renal = tested on: 786-0 renal
HCT-116 colon = tested on: HCT-116 colon
U251 CNS = tested on: U251 CNS
SN12C renal = tested on: SN12C renal
A549 NSCLC = tested on: A549 NSCLC
NCI/ADR-RES ovarian = tested on: NCI/ADR-RES ovarian
OVCAR-4 ovarian = tested on: OVCAR-4 ovarian
OVCAR-3 ovarian = tested on: OVCAR-3 ovarian
RPMI-8226 leukemia = tested on: RPMI-8226 leukemia
BT-549 breast = tested on: BT-549 breast
DU-145 prostate = tested on: DU-145 prostate
SF-539 CNS = tested on: SF-539 CNS
HOP-92 NSCLC = tested on: HOP-92 NSCLC
K-562 leukemia = tested on: K-562 leukemia
COLO 205 colon = tested on: COLO 205 colon
UACC-62 melanoma = tested on: UACC-62 melanoma
SK-OV-3 ovarian = tested on: SK-OV-3 ovarian
OVCAR-5 ovarian = tested on: OVCAR-5 ovarian
PC-3 prostate = tested on: PC-3 prostate
NCI-H522 lung = tested on: NCI-H522 lung
SR leukemia = tested on: SR leukemia
SNB-75 CNS = tested on: SNB-75 CNS
NCI-H23 lung = tested on: NCI-H23 lung
CAKI-1 renal = tested on: CAKI-1 renal
IGROV1 ovarian = tested on: IGROV1 ovarian
HL-60(TB) leukemia = tested on: HL-60(TB) leukemia
SK-MEL-28 melanoma = tested on: SK-MEL-28 melanoma
NCI-H460 lung = tested on: NCI-H460 lung
OVCAR-8 ovarian = tested on: OVCAR-8 ovarian
MOLT-4 leukemia = tested on: MOLT-4 leukemia
NCI-H226 lung = tested on: NCI-H226 lung
UACC-257 melanoma = tested on: UACC-257 melanoma

C=C1C(O)C2C(=C(CCC3CC3)C13CC3)C(=O)C(C)(C)C2O (configuration not stated)
GI50 (M14 melanoma): > 100 µM
TGI (M14 melanoma): > 100 µM
GI50 (SNB-19 CNS): > 100 µM
TGI (SNB-19 CNS): > 100 µM
GI50 (HT29 colon): > 100 µM
TGI (HT29 colon): > 100 µM
GI50 (CCRF-CEM leukemia): > 100 µM
TGI (CCRF-CEM leukemia): > 100 µM
GI50 (HCC-2998 colon): > 100 µM
TGI (HCC-2998 colon): > 100 µM
GI50 (SF-268 CNS): > 100 µM
TGI (SF-268 CNS): > 100 µM
GI50 (MCF7 breast): 58.7 µM
TGI (MCF7 breast): > 100 µM
GI50 (MDA-MB-435): > 100 µM
TGI (MDA-MB-435): > 100 µM
GI50 (ACHN renal): > 100 µM
TGI (ACHN renal): > 100 µM
GI50 (UO-31 renal): > 100 µM
TGI (UO-31 renal): > 100 µM
GI50 (EKVX NSCLC): > 100 µM
TGI (EKVX NSCLC): > 100 µM
GI50 (SF-295 CNS): 55.8 µM
TGI (SF-295 CNS): > 100 µM
GI50 (SW-620 colon): > 100 µM
TGI (SW-620 colon): > 100 µM
GI50 (MDA-MB-231 breast): 29.1 µM
TGI (MDA-MB-231 breast): 99 µM
GI50 (MALME-3M melanoma): > 100 µM
TGI (MALME-3M melanoma): > 100 µM
GI50 (LOX IMVI melanoma): > 100 µM
TGI (LOX IMVI melanoma): > 100 µM
GI50 (HS 578T breast): 25.7 µM
TGI (HS 578T breast): > 100 µM
GI50 (RXF 393 renal): 32.9 µM
TGI (RXF 393 renal): > 100 µM
GI50 (HOP-62 NSCLC): > 100 µM
TGI (HOP-62 NSCLC): > 100 µM
GI50 (TK-10 renal): > 100 µM
TGI (TK-10 renal): > 100 µM
GI50 (HCT-15 colon): > 100 µM
TGI (HCT-15 colon): > 100 µM
GI50 (SK-MEL-2 melanoma): > 100 µM
TGI (SK-MEL-2 melanoma): > 100 µM
GI50 (KM12 colon): > 100 µM
TGI (KM12 colon): > 100 µM
GI50 (SK-MEL-5 melanoma): 42.1 µM
TGI (SK-MEL-5 melanoma): > 100 µM
GI50 (786-0 renal): > 100 µM
TGI (786-0 renal): > 100 µM
GI50 (HCT-116 colon): > 100 µM
TGI (HCT-116 colon): > 100 µM
GI50 (U251 CNS): 89.9 µM
TGI (U251 CNS): > 100 µM
GI50 (SN12C renal): 71.3 µM
TGI (SN12C renal): > 100 µM
GI50 (A549 NSCLC): > 100 µM
TGI (A549 NSCLC): > 100 µM
GI50 (NCI/ADR-RES ovarian): > 100 µM
TGI (NCI/ADR-RES ovarian): > 100 µM
GI50 (OVCAR-4 ovarian): > 100 µM
TGI (OVCAR-4 ovarian): > 100 µM
GI50 (OVCAR-3 ovarian): 59.5 µM
TGI (OVCAR-3 ovarian): > 100 µM
GI50 (RPMI-8226 leukemia): 43.7 µM
TGI (RPMI-8226 leukemia): > 100 µM
GI50 (BT-549 breast): > 100 µM
TGI (BT-549 breast): > 100 µM
GI50 (DU-145 prostate): > 100 µM
TGI (DU-145 prostate): > 100 µM
GI50 (SF-539 CNS): > 100 µM
TGI (SF-539 CNS): > 100 µM
GI50 (HOP-92 NSCLC): 34.2 µM
TGI (HOP-92 NSCLC): > 100 µM
GI50 (K-562 leukemia): 61.3 µM
TGI (K-562 leukemia): > 100 µM
GI50 (COLO 205 colon): > 100 µM
TGI (COLO 205 colon): > 100 µM
GI50 (UACC-62 melanoma): 87.4 µM
TGI (UACC-62 melanoma): > 100 µM
GI50 (SK-OV-3 ovarian): 30.1 µM
TGI (SK-OV-3 ovarian): > 100 µM
GI50 (OVCAR-5 ovarian): > 100 µM
TGI (OVCAR-5 ovarian): > 100 µM
GI50 (PC-3 prostate): 92.3 µM
TGI (PC-3 prostate): > 100 µM
GI50 (NCI-H522 lung): 60.4 µM
TGI (NCI-H522 lung): > 100 µM
GI50 (SR leukemia): 32.1 µM
TGI (SR leukemia): > 100 µM
GI50 (SNB-75 CNS): 23.2 µM
TGI (SNB-75 CNS): > 100 µM
GI50 (NCI-H23 lung): 76.2 µM
TGI (NCI-H23 lung): > 100 µM
GI50 (CAKI-1 renal): 45.8 µM
TGI (CAKI-1 renal): > 100 µM
GI50 (IGROV1 ovarian): > 100 µM
TGI (IGROV1 ovarian): > 100 µM
GI50 (HL-60(TB) leukemia): > 100 µM
TGI (HL-60(TB) leukemia): > 100 µM
GI50 (SK-MEL-28 melanoma): 76.2 µM
TGI (SK-MEL-28 melanoma): > 100 µM
GI50 (NCI-H460 lung): 80.9 µM
TGI (NCI-H460 lung): > 100 µM
GI50 (OVCAR-8 ovarian): > 100 µM
TGI (OVCAR-8 ovarian): > 100 µM
GI50 (MOLT-4 leukemia): 44.3 µM
TGI (MOLT-4 leukemia): > 100 µM
GI50 (NCI-H226 lung): > 100 µM
TGI (NCI-H226 lung): > 100 µM
GI50 (UACC-257 melanoma): 71.3 µM
TGI (UACC-257 melanoma): > 100 µM
